Earlier results, collected in patent US11419915B2, “Compositions and methods for the treatment of malnutrition” (VitalneXt B.V., priority 2015, dated 2022).

Conditions: dose of 80 mg/kg bodyweight ursolic acid from an ethanolic extract of Sambucus chinensis; rat plasma

oral bioavailability: 0.6%
Compound: C[C@H]1[C@H](C)CC[C@]2(C(=O)O)CC[C@]3(C)C(=CC[C@@H]4[C@@]5(C)CC[C@H](O)C(C)(C)[C@@H]5CC[C@]43C)[C@H]12 [ursolic acid, 3-beta-3-hydroxy-urs-12-ene-28-oic-acid]
